Measurements: patent US20230257383A1, “COMPOUND SERVING AS BTK INHIBITOR, PREPARATION METHOD THEREFOR, AND USE THEREOF” (CHENGDU HYPERWAY PHARMACEUTICALS CO., LTD., priority 2020, published 2023)
Where two headings read alike, the source gives them in different places.

What was measured:
[1] = system: BT474 cell proliferation; experiment: In vitro cell proliferation inhibitory activity test (CTG), BT474; format: cell-based; details: Homo sapiens, BT-474, BT474 cell proliferation
Experimental: Test Example 4: In Vitro Cell Proliferation Inhibitory Activity Test
Cells were cultured in 1640 medium, added with 10% inactivated FBS and 1% double antibiotics, and cultured at 37° C. and 5% CO2.
(1) Cells were routinely cultured until the cell density was 80%-90%, and the cells were harvested when their number reached the requirement.
(2) Cells were resuspended with corresponding culture medium, counted, and prepared into cell suspension at appropriate density.
(3) The cell suspension was added to a 96-well plate, 100 μL per well.
(4) Cells were cultured overnight in a 37° C., 5% CO2 incubator.
(1) The compounds to be tested were diluted with DMSO to make a stock solution with a final concentration of 20 mM for later use.
(2) The stock solution was diluted 10 times from 20 mM to 2 mM with DMSO, and then diluted 3 times from 2 mM to 9 concentrations.
(3) The blank control wells were cells plus 0.5% DMSO, as high-reading control wells.
(4) Wells with no cells and only medium were used as low-reading control wells.
4: Cell treatment with compound
(1) 24 h after the cells were plated, the compounds acted alone, and 99 μL of growth medium was added to each well, followed by 1 μL of the compound prepared in step 3. The plate was shaken gently to mix uniformly, and then placed in a 37° C., 5% CO2 incubator.
(2) The cell plate was placed in an incubator for 72 h.
5: Detection by CTG method
(1) The cell plate to be tested was placed at room temperature for 30 min, and 100 μL of medium was discarded from each well.
(2) 100 μL of CTG reagent (CelltiterGlo kit) was added to each well, placed on a fast shaker for 2 min, and stood at room temperature in the dark for 30 min.
(3) The chemiluminescent signal value was read with the Envision instrument.
IC50 was calculated by using GraphPad Prism 8 software. The IC50 (half inhibitory concentration) of the compound was derived using the following nonlinear fitting formula, and the results are shown in the following table:
Y=Bottom+(Top−Bottom)/(1+10^((Log IC50−X)×HillSlope))
X: log value of compound concentration, Y: inhibition rate (% inhibition)
Inhibition rate (% inhibition)=(reading of high-reading control well-reading of compound well)/(reading of high-reading control well-reading of low-reading control well)×100

[2] = Blood-brain barrier permeability test, oral, SD rats; format: in vivo; details: rat, oral 10 mg/kg single dose; for concentration at 1 h / Kp at 1 h: time point 1 h; for concentration at 2 h / Kp at 2 h: time point 2 h; for concentration at 4 h / Kp at 4 h: time point 4 h
Experimental: Test Example 6: Blood-Brain Barrier Permeability Test
Each test compound was administered orally at a single dose of 10 mg/kg to SD rats for pharmacokinetic study. Each group included 9 rats. The test compound was dissolved in 5% DMSO+10% solutol+85% saline, vortexed for 1-2 min, and ultrasonicated for 5-10 min to prepare into a colorless, transparent and clear administration solution. Animals were fasted overnight before administration. 1 h, 2 h, and 4 h after administration, three SD rats were selected from each group to take about 0.2-0.3 mL of blood through their orbit. The blood sample was placed on ice once collected, and centrifuged to separate the plasma within 15 min (centrifugation conditions: 8000 rpm, 1 min, room temperature). The collected plasma was stored at −20° C. before analysis. Immediately after blood collection, the cerebrospinal fluid and brain tissue were collected. The cerebrospinal fluid was draw out by dural puncture with a micro-sampler syringe under direct vision. Namely, about 100 μl of cerebrospinal fluid was collected with a 100 μl micro sample syringe from the rat that was anesthetized by chloral hydrate, with the head-fixed, the back hair-cut off, a transverse incision (2 cm) made at the line connecting the roots of the two ears, and the muscle layer of the neck and skull base bluntly scraped to expose the foramen magnum. The cerebrospinal fluid was stored at −20° C. before analysis. The rat then was sacrificed immediately, with its head cut off. The dissected brain tissue, with the surface capillaries peeled off, was weighed, added with 3 times the amount of cold saline, homogenized by a homogenizer for 1 min, and stored at −20° C. before analysis. 20 μL of plasma sample and brain homogenate sample was respectively added into 200 μL of working internal standard solution (the same volume of vehicle was added to the blank instead of internal standard), vortexed for 1 min, and centrifuged at 13500 rpm for 10 min. 100 μL of the supernatant was taken and analyzed by LC-MS/MS. 20 μL of the cerebrospinal fluid was added into 60 μL of working internal standard solution (the same volume of vehicle, instead of internal standard, was added to the blank), vortexed for 1 min, and centrifuged at 13500 rpm for 10 min. 50 μL of the supernatant was taken and analyzed by LC-MS/MS.

[3] = Liver microsome metabolic stability test (human); format: in vitro ADME; details: for microsomal CLint: read-out: CLint (μL/min/mg) Human
Experimental: (§1) 1: To the sample wells of T0, T5, T10, T20, T30, T60 and NCF60, 10 μL of the test or reference working solution and 80 μL of microsome working solution (hepatic microsome with a protein concentration of 0.5 mg/mL) were added, and to Blank60 well, only the microsome working solution was added. Then samples of the Blank60, T5, T10, T20, T30 and T60 other than TO and NCF60 were placed in a 37° C. water bath and pre-incubated for about 10 min.
(§2) 2: To the TO sample well, 300 μL of stop solution (containing 200 ng/mL tolbutamide and 200 ng/mL labetalol in acetonitrile solution) was added first, followed by 10 μL of NADPH regeneration system working solution.
(§3) 3: After the pre-incubation of Blank60, T5, T10, T20, T30 and T60 incubation plates, 10 μL of NADPH regeneration system working solution was added to each sample well to start the reaction, and 10 μL of 100 mM potassium phosphate buffer was added to the NCF60 sample well.
(§4) 4: After incubation for an appropriate time (such as 5, 10, 20, 30 and 60 min), to each test sample well and control well of the Blank60, T5, T10, T20, T30, T60 and NCF60 plates, 300 μL of stop solution was added to terminate the reaction.
(§5) 5: All sample plates were shaken to mix well and centrifuged at 4000 rpm for 20 min, and 100 μL of the supernatant of the test sample or control sample was taken and diluted with 300 μL of pure water for LC-MS/MS analysis.
(§6) 6: Data analysis: T1/2 and CLint(mic) (μL/min/mg) values were calculated according to the first-order elimination kinetics. The first-order elimination kinetics equation was: […]

[4] = Liver microsome metabolic stability test (rat); format: in vitro ADME; details: for microsomal CLint: read-out: CLint (μL/min/mg) Rat
Experimental: as §1, §2, §3, §4, §5, §6

[5] = brain, read-out: Drug concentration in brain tissue
[6] = brain/plasma, read-out: Brain tissue/plasma
[7] = cerebrospinal fluid, read-out: Drug concentration in cerebrospinal fluid
[8] = cerebrospinal fluid/plasma, read-out: Cerebrospinal fluid/plasma
[9] = plasma, read-out: Plasma drug concentration

`Nc1nccn2c(C3CCC(CO)OC3)nc(-c3ccc(C(F)(F)c4ccccc4)cc3)c12` (single isomer, unassigned) [Example 111-P1] gave an IC50 [1] of 1550 nM, a concentration at 1 h [2, 5] of 1250 ng/g and a concentration at 2 h [2, 5] of 1070 ng/g. The concentration at 4 h [2, 5] was 787 ng/g, the Kp at 1 h [2, 6] was 0.62 and the Kp at 2 h [2, 6] was 0.67. The Kp at 4 h [2, 6] was 0.59, the concentration at 1 h [2, 7] was 66.2 ng/mL and the concentration at 2 h [2, 7] was 52.3 ng/mL. It also gave a concentration at 4 h [2, 7] of 41.9 ng/mL, a Kp at 1 h [2, 8] of 0.033 and a Kp at 2 h [2, 8] of 0.033. It also gave a Kp at 4 h [2, 8] of 0.031, a concentration at 1 h [2, 9] of 2010 ng/mL and a concentration at 2 h [2, 9] of 1580 ng/mL. It also gave a concentration at 4 h [2, 9] of 1340 ng/mL.
Molecule `Nc1nccn2c(C34CCC(CO)(CC3)OC4)nc(-c3ccc(C(F)(F)c4ccccc4Cl)cc3)c12` [Example 155] has a microsomal CLint ([3]; liver microsomes) of 41.7 µL/min/mg, a microsomal CLint ([4]; liver microsomes) of 62.2 µL/min/mg and an IC50 [1] of 46.4 nM. For the same molecule, the concentration at 1 h [2, 5] was 1520 ng/g, the concentration at 2 h [2, 5] was 1860 ng/g and the concentration at 4 h [2, 5] was 1260 ng/g. The Kp at 1 h [2, 6] was 1.21, the Kp at 2 h [2, 6] was 1.3 and the Kp at 4 h [2, 6] was 1.19. It also gave a concentration at 1 h [2, 7] of 292 ng/mL, a concentration at 2 h [2, 7] of 374 ng/mL and a concentration at 4 h [2, 7] of 220 ng/mL. The Kp at 1 h [2, 8] was 0.23, the Kp at 2 h [2, 8] was 0.26 and the Kp at 4 h [2, 8] was 0.21. It also gave a concentration at 1 h [2, 9] of 1250 ng/mL, a concentration at 2 h [2, 9] of 1430 ng/mL and a concentration at 4 h [2, 9] of 1060 ng/mL.
Work on `Nc1nccn2c(C34CCC(CO)(CC3)OC4)nc(-c3ccc(C(F)(F)c4cccc(Cl)c4F)cc3)c12` [Example 152] yielded a microsomal CLint ([3]; liver microsomes) of 45.9 µL/min/mg, a microsomal CLint ([4]; liver microsomes) of 102 µL/min/mg and an IC50 [1] of 65.5 nM. It also gave a concentration at 1 h [2, 5] of 288 ng/g, a concentration at 2 h [2, 5] of 378 ng/g and a concentration at 4 h [2, 5] of 232 ng/g. It also gave a Kp at 1 h [2, 6] of 0.27, a Kp at 2 h [2, 6] of 0.39 and a Kp at 4 h [2, 6] of 0.32. It also gave a concentration at 1 h [2, 7] of 187 ng/mL, a concentration at 2 h [2, 7] of 227 ng/mL and a concentration at 4 h [2, 7] of 181 ng/mL. The Kp at 1 h [2, 8] was 0.18, the Kp at 2 h [2, 8] was 0.24 and the Kp at 4 h [2, 8] was 0.25. It also gave a concentration at 1 h [2, 9] of 1060 ng/mL, a concentration at 2 h [2, 9] of 961 ng/mL and a concentration at 4 h [2, 9] of 715 ng/mL.
For `Nc1nccn2c(C34CCC(CO)(CC3)OC4)nc(-c3ccc(C(F)(F)c4ccccc4)cc3)c12` [Example 125], the microsomal CLint ([3]; liver microsomes) was 14.6 µL/min/mg, the microsomal CLint ([4]; liver microsomes) was 21.7 µL/min/mg and the IC50 [1] was 340 nM. It also gave a concentration at 1 h [2, 5] of 1340 ng/g, a concentration at 2 h [2, 5] of 1170 ng/g and a concentration at 4 h [2, 5] of 1060 ng/g. For the same molecule, the Kp at 1 h [2, 6] was 0.91, the Kp at 2 h [2, 6] was 1.03 and the Kp at 4 h [2, 6] was 0.84. For the same molecule, the concentration at 1 h [2, 7] was 34.1 ng/mL, the concentration at 2 h [2, 7] was 30.4 ng/mL and the concentration at 4 h [2, 7] was 29.6 ng/mL. It also gave a Kp at 1 h [2, 8] of 0.023, a Kp at 2 h [2, 8] of 0.027 and a Kp at 4 h [2, 8] of 0.024. For the same molecule, the concentration at 1 h [2, 9] was 1470 ng/mL, the concentration at 2 h [2, 9] was 1130 ng/mL and the concentration at 4 h [2, 9] was 1260 ng/mL.
`Cc1cc(Nc2ncnc3ccc(NC4=NC(C)(C)CO4)cc23)ccc1Oc1ccn2ncnc2c1` [Tucatinib, reference compound] showed a microsomal CLint ([3]; liver microsomes) of 43.7 µL/min/mg, a microsomal CLint ([4]; liver microsomes) of 34.9 µL/min/mg and an IC50 [1] of 30.2 nM. The concentration at 1 h [2, 5] was 26.5 ng/g, the concentration at 2 h [2, 5] was 29.5 ng/g and the concentration at 4 h [2, 5] was 24.5 ng/g. It also gave a Kp at 1 h [2, 6] of 0.013, a Kp at 2 h [2, 6] of 0.015 and a Kp at 4 h [2, 6] of 0.013. For the same molecule, the concentration at 1 h [2, 7] was 19.2 ng/mL, the concentration at 2 h [2, 7] was 10.4 ng/mL and the concentration at 4 h [2, 7] was 14.9 ng/mL. The Kp at 1 h [2, 8] was 0.009, the Kp at 2 h [2, 8] was 0.005 and the Kp at 4 h [2, 8] was 0.008. It also gave a concentration at 1 h [2, 9] of 2030 ng/mL, a concentration at 2 h [2, 9] of 1940 ng/mL and a concentration at 4 h [2, 9] of 1900 ng/mL.
With `Nc1nccn2c(C34CCC(CO)(CC3)OC4)nc(-c3ccc(C(F)(F)c4ccccc4F)cc3)c12` [Example 145] the “% Remaining (60 min) Human” value ([3]; 60 min) was 46.2%, the half-life ([3]; liver microsomes, 0.5 mg/mL protein, read-out: T1/2 (min) Human) was 61.2 min and the microsomal CLint ([3]; liver microsomes) was 22.7 µL/min/mg. For the same molecule, the “% Remaining (60 min) Rat” value ([4]; 60 min) was 49.6%, the half-life ([4]; liver microsomes, 0.5 mg/mL protein, read-out: T1/2 (min) Rat) was 60.8 min and the microsomal CLint ([4]; liver microsomes) was 22.8 µL/min/mg. The IC50 [1] was 40.9 nM, the concentration at 1 h [2, 5] was 643 ng/g and the concentration at 4 h [2, 5] was 910 ng/g. It also gave a Kp at 1 h [2, 6] of 0.39, a Kp at 4 h [2, 6] of 0.53 and a concentration at 1 h [2, 7] of 59.7 ng/mL. For the same molecule, the concentration at 4 h [2, 7] was 74.3 ng/mL, the Kp at 1 h [2, 8] was 0.036 and the Kp at 4 h [2, 8] was 0.044. For the same molecule, the concentration at 1 h [2, 9] was 1650 ng/mL and the concentration at 4 h [2, 9] was 1710 ng/mL.
